# Measured values reported in patent publication US20010005721A1, “Heel crack healing composition and method therefor” (priority 1998, published 2001).
# Key:
# [1] = system: cracks upon the heel and foot; experiment: Trial Study Series A: active ingredient studies 1-4
# [2] = system: heel cracks
smiles,measurement,setting,value
C[C@]12CCC(=O)C=C1CC[C@@H]1[C@@H]2[C@@H](O)C[C@@]2(C)[C@H]1CC[C@]2(O)C(=O)CO [Hydrocortisone],effectiveness,[1]; hydrocortisone concentration about 0.5% or more,most effective concentrations
same,healing speed,[1]; hydrocortisone concentration greater than about 0.75%,promote a faster healing
same,effectiveness,[1]; hydrocortisone concentration less than about 0.25%,little worthwhile effect
same,effectiveness (healing time),[1]; hydrocortisone concentration less than about 0.5%,"generally less effective, having a lengthened healing time"
O=C(O)c1ccccc1O [Salicylic acid],effectiveness,[1]; salicylic acid concentration about 4%,most effective concentration
same,effectiveness,[1]; salicylic acid concentration about 5%,also an effective concentration
same,effectiveness / excessive exfoliation,[1]; salicylic acid concentration about 8-9%,not as effective due to excessive exfoliation
same,"effectiveness (exfoliation, healing time)",[1]; salicylic acid concentration less than about 4% in the composition,"generally less effective, promoting less exfoliation and having a lengthened healing time"
same,defoliation versus therapeutic benefit,[2]; about 10% by weight salicylic acid,effects of rapid defoliation begin to exceed the therapeutic benefits
same,effect of raising the salicylic acid component,[2]; salicylic acid over about 6% or 7% by weight,negative results characterized not only by a rapid defoliation of the affected areas
[O]=[Zn] [Zinc oxide],healing of cracks upon the heel and foot,[1]; zinc oxide concentration about 3%,optimal concentration
same,healing properties of the composition,[1]; zinc oxide concentration above about 5%,does not appear to affect the healing properties
same,healing,[1]; zinc oxide concentration less than about 1%,some slight decrease in the healing
